≈ marks a conversion by molar mass, not a printed value.
What was measured:
[1] = test system: MCF-7; parameters: method as in earlier work; conditions: MCF-7 tumour cells; ref 6 (Alegaon et al.); cited from earlier work
[2] = test system: A549; parameters: method as in earlier work; conditions: A549 tumour cells; ref 6 (Alegaon et al.); cited from earlier work
[3] = test system: human lung carcinoma (A549); test: MTT antiproliferative assay, A549 cells; type: cell-based; conditions: for IC50: Homo sapiens, MTT, 48 h exposure, read-out: IC50 [µg/ml] ± SEM, A549; for SI [IC50BJ/IC50], A549: safety index = IC50 normal cells (BJ)/IC50 A549
Procedure: (§1) The experiment was carried out using normal human skin fibroblasts (BJ) and tumour cell lines: human lung carcinoma (A549), human hepatocellular carcinoma (HepG2), and human breast adenocarcinoma (MCF-7). All cell lines were obtained from ATCC (American Type Culture Collection, England, UK) and cultured in the appropriate, recommended by ATCC, culture medium, additionally supplemented with 10% foetal bovine serum and antibiotics: 100 U/ml penicillin and 100 µg/ml streptomycin. The cells were maintained at 37 °C in a humidified atmosphere of 5% CO2 and 95% air. Antiproliferative activity of the new compounds was assessed by, commonly used for this purpose, colorimetric MTT assay. Cells with active mitochondrial dehydrogenases reduced intracellularly the tetrazolium dye into purple formazan, which is proportional to the number of viable cells. The cells were seeded in 96-multiwell plates in 100 μl of the appropriate complete culture medium at a concentration of 7 × 10^3 cells/well in the case of BJ cells (normal fibroblasts), 1 × 10^4 cells/well in the case of A549 cells (lung cancer), 1.5 × 10^4 cells/well in the case of HepG2 cells (liver cancer), and 2 × 10^4 cells/well in the case of MCF-7 cells (breast cancer) so as to obtain 60–70% confluent culture after 24 h of incubation at 37 °C – the cells are then in the log (logarithmic) phase, during a period of active proliferation, but still have an unoccupied space to divide. Afterwards, the culture medium was discarded and replaced with 100 µl of different concentrations of new tested compounds and reference antiproliferative agent: irinotecan. The stock solutions of the compounds were prepared in DMSO, and solvent control was being tested concurrently to exclude toxicity attributed to DMSO. Ten serial two-fold dilutions using culture medium were performed to prepare different concentrations of the tested compounds, and the highest tested concentration was 200 µg/ml. Untreated cells (maintained in the complete culture medium) served as a negative control. After exposing cells for 48 h to the tested derivatives, the MTT assay was performed as described earlier. Three independent experiments (n = 3) were performed in a quadruplicate. The obtained data were analysed using GraphPad Prism 5, version 5.03 software (La Jolla, CA). […] Moreover, safety index (SI) was calculated using the following formula: SI=IC50normal cells (BJ)/IC50cancer cells

[4] = test system: human hepatocellular carcinoma (HepG2); test: MTT antiproliferative assay, HepG2 cells; type: cell-based; conditions: for IC50: Homo sapiens, MTT, 48 h exposure, read-out: IC50 [µg/ml] ± SEM, HepG2
Procedure: as §1

[5] = test system: human breast adenocarcinoma (MCF-7); test: MTT antiproliferative assay, MCF-7 cells; type: cell-based; conditions: for IC50: Homo sapiens, MCF7, MTT, 48 h exposure, read-out: IC50 [µg/ml] ± SEM, MCF-7
Procedure: as §1

[6] = test system: normal human skin fibroblasts (BJ); test: MTT assay, normal fibroblasts BJ; type: cell-based; conditions: Skin fibroblast, 48 h exposure, read-out: IC50 [µg/ml] ± SEM, BJ
Procedure: as §1

[7] = test system: Staphylococcus aureus ATCC 25923; test: Broth microdilution MIC, S. aureus ATCC 25923; type: cell-based; conditions: 35 °C; for Minimal inhibitory concentration MIC, Staphylococcus aureus 25923: 18 h; for MIC: Staphylococcus aureus, ATCC25923, 18 h, read-out: Minimal inhibitory concentration MIC, Staphylococcus aureus 25923
Procedure: (§2) Newly synthesised compounds’ antibacterial activities were tested in vitro against six aerobic bacteria reference strains: three Gram-positive (Staphylococcus aureus ATCC 25923, methicillin-resistant S. aureus MIKROBANK 14.001 reference strain from National Medicines Institute in Warsaw, and Staphylococcus epidermidis ATCC 12228) and three Gram-negative (Escherichia coli ATCC 25922, Proteus mirabilis ATCC 12453, and Pseudomonas aeruginosa ATCC 9027).
(§3) Bacterial cell suspensions equivalent to 0.5 McFarland (1.5 × 10^8 CFU/ml) were prepared in 0.85% sterile saline. Tested compounds’ stock solutions (50 mg/ml) were dissolved in dimethyl sulphoxide (DMSO).
(§4) Bacteria strain susceptibility to tested agents was determined by broth microdilution method. Broth microdilution method was carried out in accordance with Clinical and Laboratory Standards Institute recommendations and was used as reference method. Mueller–Hinton broth containing two-fold dilutions of the tested substances (at concentrations ranging from 3.91 to 1000 µg/ml) was used to determine their minimal inhibitory concentration (MIC) which is the lowest concentration of an antibacterial that will inhibit the visible growth of a microorganism after 18 h of incubation). Mueller–Hinton broth is recommended as the medium of choice for susceptibility testing of commonly isolated, rapidly growing aerobic, or facultative organisms. Gentamicin (KRKA, Slovenia), an aminoglycoside antibiotic active against a wide range of human bacterial infections, mostly Gram-negative bacteria including Pseudomonas, Proteus, Serratia, and the Gram-positive Staphylococcus, was used as a control antibacterial agent (at concentration from 0.12 µg to 1000 µg).
(§5) Tested compounds two-fold dilutions in Mueller–Hinton broth without bacteria were blank control wells (incubated on equal conditions). Polystyrene trays containing 96 wells were filled with serial two-fold Mueller–Hinton broth dilutions of tested agents. Next, the broth was inoculated with 20 μl of 0.5 McFarland microbial suspension (previously diluted 1:10 by Mueller–Hinton broth). Total volume per each well was 200 μl. After incubation (at 35 °C for 18 h), bacterial cultures’ optical density was measured by microplate reader (BioTek Synergy H4 Hybrid Reader) at 600 nm. The MIC values were determined by the comparison of broth bacterial culture OD600 containing tested concentrations of examined substances to blank control wells.

[8] = test system: methicillin-resistant S. aureus MIKROBANK 14.001; test: Broth microdilution MIC, methicillin-resistant S. aureus; type: cell-based, Staphylococcus aureus; conditions: methicillin-resistant strain, 18 h, 35 °C; for MIC: Staphylococcus aureus, read-out: Minimal inhibitory concentration MIC, Staphylococcus aureus MIKROBANK 14.001
Procedure: as §2, §3, §4, §5

[9] = test system: Staphylococcus epidermidis ATCC 12228; test: Broth microdilution MIC, S. epidermidis ATCC 12228; type: cell-based; conditions: 35 °C; for Minimal inhibitory concentration MIC, Staphylococcus epidermidis 12228: 18 h; for MIC: Staphylococcus epidermidis, ATCC12228, 18 h, read-out: Minimal inhibitory concentration MIC, Staphylococcus epidermidis 12228
Procedure: as §2, §3, §4, §5

[10] = test system: Escherichia coli ATCC 25922; test: Broth microdilution MIC, E. coli ATCC 25922; type: cell-based; conditions: ATCC25922, 18 h, 35 °C, read-out: Concentration inhibiting E. coli ATCC 25922 growth (MIC)
Procedure: as §2, §3
Bacteria strain susceptibility to tested agents was determined by broth microdilution method. Broth microdilution method was carried out in accordance with Clinical and Laboratory Standards Institute recommendations and was used as reference method. […]
Tested compounds two-fold dilutions in Mueller–Hinton broth without bacteria were blank control wells (incubated on equal conditions). […] After incubation (at 35 °C for 18 h), bacterial cultures’ optical density was measured by microplate reader (BioTek Synergy H4 Hybrid Reader) at 600 nm. The MIC values were determined by the comparison of broth bacterial culture OD600 containing tested concentrations of examined substances to blank control wells.

[11] = MCF-7 cells, compared to irinotecan

IC50 ([3]; A549 cells) | IC50 ([4]; HepG2 cells) | IC50 ([5]; MCF-7 cells) | Minimal inhibitory concentration MIC, Staphylococcus aureus 25923 [7] | MIC [7] | MIC [8] | Minimal inhibitory concentration MIC, Staphylococcus aureus MIKROBANK 14.001 [8] | Minimal inhibitory concentration MIC, Staphylococcus epidermidis 12228 [9] | MIC [9] | melting point | Compound | SI [IC50BJ/IC50], A549 [3] | IC50 [6] | further results
 |  |  |  |  |  |  |  |  |  | COc1cc(-c2nnc(NC(=O)CC3SC(=O)NC3=O)s2)cc(OC)c1OC (stereo not drawn) [2-(2,4-dioxo-1,3-thiazolidin-5-yl)-N-[5-(3,4,5-trimethoxyphenyl)-1,3,4-thiadiazol-2-yl]acetamide] |  |  | IC50, MCF-7 (literature) [1]: 15.28 µg/mL (≈ 36 µM); IC50, A549 (literature) [2]: 12.7 µg/mL (≈ 29.9 µM)
8.08 ± 1.05 µg/mL (≈ 18.8 µM) | 3.86 ± 1.07 µg/mL (≈ 8.98 µM) | 1.59 ± 1.06 µg/mL (≈ 3.7 µM) | 62.5 µg/mL | 62.5 µg/mL | 125 µg/mL | 125 µg/mL | 125 µg/mL | 125 µg/mL | 243 to 245 °C | O=C(C=C1SC(=O)NC1=O)Oc1ccccc1C=NNC(=O)c1cccc(Cl)c1 [Compound 18, 2-{[2-(3-Chlorobenzoyl)hydrazinylidene]methyl}phenyl (2,4-dioxo-1,3-thiazolidin-5-ylidene)acetate] | 1.24 | 10.1 ± 1.18 µg/mL (≈ 23.4 µM) | IC50 fold lower compared to irinotecan, A549 ([3]; A549 cells, compared to irinotecan): five-fold lower; IC50 fold lower compared to irinotecan, HepG2 ([4]; HepG2 cells, compared to irinotecan): four-fold lower; IC50 fold lower than IC50 of irinotecan, MCF-7 [5, 11]: 13 fold; SI value compared to the reference substance, MCF-7 [5, 11]: three-fold higher; MIC [10]: 125 µg/mL
31.3 ± 1.66 µg/mL (≈ 70.8 µM) | 15.2 ± 1.25 µg/mL (≈ 34.3 µM) | 34.2 ± 1.12 µg/mL (≈ 77.2 µM) | 125 µg/mL | 125 µg/mL | 125 µg/mL | 125 µg/mL | 62.5 µg/mL | 62.5 µg/mL | 194 to 196 °C | Cc1ccc(NC(=S)NN=Cc2cccc(OC(=O)CC3SC(=O)NC3=O)c2)cc1 (stereo not drawn) [Compound 23, 3-[{2-[(4-Methylphenyl)carbamothioyl]hydrazinylidene}methyl]phenyl (2,4-dioxo-1,3-thiazolidin-5-yl)acetate] | 0.80 | 25.2 ± 1.52 µg/mL (≈ 56.9 µM) | SI [IC50BJ/IC50], HepG2 ([4]; safety index = IC50 normal cells (BJ)/IC50 HepG2): 1.66; SI [IC50BJ/IC50], MCF-7 ([5]; safety index = IC50 normal cells (BJ)/IC50 MCF-7): 0.74
